Test results from patent publication US20230128194A1, “METHODS AND COMPOSITIONS TO ALTER HEPATIC GABA RELEASE TO TREAT OBESITY-RELATED CONDITIONS” (ARIZONA BOARD OF REGENTS ON BEHALF OF THE UNIVERSITY OF …, priority 2017, published 2023).

Target: T1, BGT1 (Mus musculus, UniProt P31651)
T1 construct: from tissue; host or cells: mouse liver slices
T1 sequence (P31651 1-614): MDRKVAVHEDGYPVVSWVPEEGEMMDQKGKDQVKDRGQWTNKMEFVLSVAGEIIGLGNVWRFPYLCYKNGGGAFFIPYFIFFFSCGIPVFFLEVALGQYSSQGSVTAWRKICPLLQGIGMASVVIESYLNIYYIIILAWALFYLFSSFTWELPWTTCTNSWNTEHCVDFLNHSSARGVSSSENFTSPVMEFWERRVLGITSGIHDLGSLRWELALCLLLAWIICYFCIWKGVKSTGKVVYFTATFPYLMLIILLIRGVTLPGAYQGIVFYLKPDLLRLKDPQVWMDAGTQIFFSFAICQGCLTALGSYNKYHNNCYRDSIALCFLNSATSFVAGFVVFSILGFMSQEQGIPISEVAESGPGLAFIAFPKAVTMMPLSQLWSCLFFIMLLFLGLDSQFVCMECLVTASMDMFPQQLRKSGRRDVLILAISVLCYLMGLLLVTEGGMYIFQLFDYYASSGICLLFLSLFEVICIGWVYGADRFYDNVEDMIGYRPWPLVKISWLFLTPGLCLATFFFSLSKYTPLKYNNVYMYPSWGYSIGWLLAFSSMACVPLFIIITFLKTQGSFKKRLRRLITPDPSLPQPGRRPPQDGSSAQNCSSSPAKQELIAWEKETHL
Assay: liver slice media GABA with BGT1 inhibitor
Type: cell-based
Conditions: liver slices, 1 mM
Source text: Two liver slices were taken from each mouse.

C[N+](C)(C)CC(=O)O [betaine]
media GABA concentrations: increases
